Data set [1] can be described thus: Cytotoxicity against mouse J774.1 cells after 48 hrs. The format is cell-based. The note with it: read-out: ED50.
Data set [2] relates to Trypanosoma brucei brucei. Nature of the data set: Antitrypanosomal activity against Trypanosoma brucei brucei TC221. The note with it: read-out: ED50 (the source's name). The format is functional.
The test system of a further data set is Leishmania major. The data set is described as follows: Antileishmanial activity against Leishmania major MHOM/IL/81/FE/BNI infected in BALB/c mouse. Format: functional.
The subject of a further data set is Plasmodium falciparum. The data set is described as follows: Antiplasmodial activity against chloroquine-sensitive Plasmodium falciparum. Format: functional, organism-based. The note with it: for pIC50: Plasmodium falciparum, read-out: IC50.
A further data set relates to Staphylococcus aureus. The data set is described as follows: Antibacterial activity against Staphylococcus aureus assessed as inhibition of biofilm formation. The format is functional, organism-based.

Each structure is given as a SMILES string. pEC50, pIC50: −log10 of the molar value. Calls of active or inactive are those of the source. No cut-off for these calls is given here.

Take `CC[C@@H]1CC2(C[C@H](CC)N1Cc1ccccc1)C(=O)N(Cc1ccc([N+](=O)[O-])cc1)C(=O)N2c1ccccc1` (some centres undefined): the CC50 at 48 h in data set [1] was greater than 100 µM. Further, in data set [2], the pEC50 was 4.60. Moreover, the ED50 with Leishmania major is greater than 100 µM. In addition, the IC50 result in the data set on Plasmodium falciparum was “Not Active”. The result in the data set with Staphylococcus aureus was inactive.

Turning to `COC(=O)C1C(=O)C(C(=O)OC)[C@H](c2ccccn2)N(CCO)[C@@H]1c1ccccn1` (some centres undefined), the CC50 at 48 h in data set [1] was 31.2 µM. In the data set on Leishmania major, the ED50 was greater than 100 µM. The IC50 entry with Plasmodium falciparum is given as “Not Active”. In the data set on Staphylococcus aureus, the outcome was inactive.

Consider `COC(=O)C1C(=O)C(C(=O)OC)[C@H](c2cccc([N+](=O)[O-])c2)N(Cc2ccc(Cl)cc2)[C@@H]1c1cccc([N+](=O)[O-])c1` (some centres undefined), for which the CC50 at 48 h in data set [1] came to 46.6 µM. The molecule further registered an ED50 in the data set with Leishmania major greater than 100 µM. For the same molecule, the IC50 result in the data set with Plasmodium falciparum was “Not Active”. Further, the result in the data set on Staphylococcus aureus was inactive.

Turning to `COC(=O)C1C(=O)C(C(=O)OC)[C@H](c2cccc([N+](=O)[O-])c2)N(Cc2ccc(C)cc2)[C@@H]1c1cccc([N+](=O)[O-])c1` (some centres undefined), the CC50 at 48 h in data set [1] is 49.8 µM. Also, in the data set with Leishmania major, the ED50 is greater than 100 µM. Moreover, the IC50 result with Plasmodium falciparum was “Not Active”. Besides, the result in the data set on Staphylococcus aureus was inactive.

For `COC(=O)C1C(=O)C(C(=O)OC)[C@H](c2ccccn2)N(CCOCCO)[C@@H]1c1ccccn1` (some centres undefined), in data set [1], the CC50 at 48 h worked out at 38.5 µM. The molecule also returned an ED50 in the data set on Leishmania major of 65.04 µM. Besides, the IC50 result in the data set with Plasmodium falciparum is on record as “Not Active”. Also, in the data set on Staphylococcus aureus, the result was inactive.

For the molecule `CC[C@@H]1CC2(C[C@H](CC)N1Cc1ccccc1)C(=O)NC(=O)N2c1ccccc1` (some centres undefined), the CC50 at 48 h in data set [1] was greater than 100 µM. The pEC50 in data set [2] is 4.51. In addition, the ED50 in the data set on Leishmania major was greater than 100 µM. Also, in the data set on Plasmodium falciparum, the IC50 result is listed as “Not Active”. The result in the data set on Staphylococcus aureus was inactive.

What is called pIC50 is the negative decadic logarithm of the IC50, by convention in mol/L. For the molecule `Clc1cccc(Cl)c1CON=C1CCN(CCCc2ccccc2)CC1`, the CC50 at 48 h in data set [1] was greater than 100 µM. The pEC50 in data set [2] was less than 4.00. In the data set with Leishmania major, this molecule yielded an ED50 greater than 100 µM. The negative-log IC50 (pIC50) with Plasmodium falciparum was 4.51. In the data set on Staphylococcus aureus, the outcome was inactive.

`ON=C1CCN(CCCc2ccccc2)CC1`: the negative-log IC50 (pIC50) in the data set on Plasmodium falciparum is 4.59. Besides, the outcome in the data set on Staphylococcus aureus was inactive.

Consider `COC(=O)C1C(=O)[C@H](C(=O)OC)C(c2ccccn2)N[C@@H]1c1ccccn1` (some centres undefined), for which, in data set [1], the CC50 at 48 h is greater than 100 µM. The ED50 in the data set on Leishmania major was greater than 100 µM. Besides, the IC50 result in the data set on Plasmodium falciparum is reported as “Not Active”. Also, the result in the data set with Staphylococcus aureus was inactive.

For `NCCCC(N)(C(=O)O)C(F)F` (centres undefined) [EFLORNITHINE], in data set [2], the pEC50 was 4.64.

In the case of `COC(=O)C1C(=O)C(C(=O)OC)[C@H](c2ccccn2)N(CCCCCCCC(=O)O)[C@@H]1c1ccccn1` (some centres undefined), in data set [1], the CC50 at 48 h was 33.8 µM. The same molecule yielded an ED50 in the data set on Leishmania major of 50.34 µM. Moreover, the outcome with Plasmodium falciparum was inactive.

On to `COC(=O)C1C(=O)C(C(=O)OC)[C@H](c2cccc([N+](=O)[O-])c2)N(Cc2ccc(OC)cc2)[C@@H]1c1cccc([N+](=O)[O-])c1` (some centres undefined), for which the CC50 at 48 h in data set [1] is greater than 100 µM. The same molecule came in with an ED50 in the data set with Leishmania major greater than 100 µM. Also, in the data set with Plasmodium falciparum, the IC50 entry is “Not Active”. Further, in the data set with Staphylococcus aureus, the result was inactive.

For `C=CCN1[C@H](c2ccc([N+](=O)[O-])cc2)C(C(=O)OC)C(=O)C(C(=O)OC)[C@@H]1c1ccc([N+](=O)[O-])cc1` (some centres undefined), the CC50 at 48 h in data set [1] turned out to be 50.3 µM. In addition, in data set [2], the pEC50 is 5.62. For the same molecule, in the data set with Leishmania major, the ED50 is greater than 100 µM. In the data set on Plasmodium falciparum, the IC50 result is “Not Active”. The outcome with Staphylococcus aureus was inactive.

Turning to `COC(=O)C1=C(O)C[C@H](c2ccccn2)N(Cc2ccc(C)cc2)[C@@H]1c1ccccn1`, in data set [1], the CC50 at 48 h was determined as 34.9 µM. Also, the pEC50 in data set [2] is 6.33. The same molecule displayed an ED50 with Leishmania major of 83.83 µM. The outcome in the data set with Staphylococcus aureus was inactive.

Take `C=CCN1[C@H](c2ccccc2)C(C(=O)OC)C(=O)C(C(=O)OC)[C@@H]1c1ccccc1` (some centres undefined): the CC50 at 48 h in data set [1] was greater than 100 µM. Moreover, the IC50 entry in the data set on Plasmodium falciparum is “Not Active”. Also, the outcome in the data set on Staphylococcus aureus was inactive.

As for `C[C@@H]1CC2(C[C@H](C)N1)C(=O)N(CCO)C(=O)N2Cc1ccccc1` (some centres undefined), the CC50 at 48 h in data set [1] is greater than 100 µM. For the same molecule, the pEC50 in data set [2] is less than 4.00. Besides, the ED50 with Leishmania major was greater than 100 µM. Also, the IC50 result in the data set on Plasmodium falciparum is on record as “Not Active”. For the same molecule, the result in the data set with Staphylococcus aureus was inactive.

In the case of `COC(=O)C1C(=O)C(C(=O)OC)[C@H](c2cccc([N+](=O)[O-])c2)N(Cc2ccccc2)[C@@H]1c1cccc([N+](=O)[O-])c1` (some centres undefined), the CC50 at 48 h in data set [1] is greater than 100 µM. In the data set on Leishmania major, the ED50 is greater than 100 µM. For the same molecule, the IC50 result with Plasmodium falciparum was “Not Active”. Besides, the result in the data set on Staphylococcus aureus was inactive.

With `COC(=O)C1C(=O)C(C(=O)OC)[C@H](c2ccccn2)N(Cc2ccccn2)[C@@H]1c1ccccn1` (some centres undefined), the CC50 at 48 h in data set [1] is 29.9 µM. In addition, the pEC50 in data set [2] was 5.34. Further, the ED50 in the data set with Leishmania major is greater than 100 µM. Also, the IC50 entry in the data set on Plasmodium falciparum is recorded as “Not Active”. Further, the result in the data set with Staphylococcus aureus was inactive.

As to `COC(=O)C1C(=O)C(C(=O)OC)[C@H](c2ccccn2)N(CCCO)[C@@H]1c1ccccn1` (some centres undefined), the CC50 at 48 h in data set [1] came to 32 µM. In addition, the pEC50 in data set [2] was 4.74. The ED50 with Leishmania major was greater than 100 µM. Besides, the IC50 result in the data set on Plasmodium falciparum is on record as “Not Active”. Further, the result in the data set with Staphylococcus aureus was inactive.

In the case of `COC(=O)C1=C(O)C[C@H](c2ccccn2)N(Cc2ccc(OC)cc2)[C@@H]1c1ccccn1`, the CC50 at 48 h in data set [1] came out at 29.9 µM. Also, the pEC50 in data set [2] was 6.37. This molecule displayed an ED50 in the data set with Leishmania major of 30 µM. The result with Staphylococcus aureus was inactive.

Regarding `C[C@@H]1CC2(C[C@H](C)N1)C(=O)NC(=O)N2c1ccccc1` (some centres undefined), the CC50 at 48 h in data set [1] was greater than 100 µM. Besides, the pEC50 in data set [2] was less than 4.00. In addition, the ED50 with Leishmania major is greater than 100 µM. Further, in the data set on Plasmodium falciparum, the IC50 result is on record as “Not Active”. In the data set on Staphylococcus aureus, the result was inactive.

With `O/N=C/C1CCN(CCCc2ccccc2)CC1`, the CC50 at 48 h in data set [1] was greater than 100 µM. The pEC50 in data set [2] is less than 4.00. In addition, the ED50 with Leishmania major is greater than 100 µM. Also, the outcome with Staphylococcus aureus was inactive.

Consider `N=C(N)c1ccc(OCCCCCOc2ccc(C(=N)N)cc2)cc1` [PENTAMIDINE ISETHIONATE], for which, in data set [2], the pEC50 was 8.57.

As to `COC(=O)C1=C(O)C[C@@H](c2ccccn2)N(Cc2ccccc2)[C@H]1c1ccccn1`, in data set [1], the CC50 at 48 h stood at 33.2 µM. Moreover, in the data set on Leishmania major, the ED50 is 25.97 µM. The IC50 result in the data set with Plasmodium falciparum was “Not Active”. Moreover, in the data set on Staphylococcus aureus, the result was inactive.

Consider `CCCC[C@@H]1CC2(C[C@H](CCCC)N1)C(=O)NC(=O)N2c1ccccc1` (some centres undefined), for which the pEC50 in data set [2] is 4.61. In addition, the ED50 in the data set with Leishmania major was greater than 100 µM. Also, the IC50 entry in the data set on Plasmodium falciparum is reported as “Not Active”. Besides, in the data set with Staphylococcus aureus, the outcome was inactive.

Turning to `COC(=O)C1=C(O)C[C@H](c2ccccn2)N(Cc2cccc(OC)c2)[C@@H]1c1ccccn1`, in data set [1], the CC50 at 48 h was greater than 100 µM. Besides, the pEC50 in data set [2] was less than 4.00. The molecule also showed an ED50 in the data set on Leishmania major greater than 100 µM. Moreover, the result in the data set on Staphylococcus aureus was inactive.

With `CC[C@@H]1CC2(C[C@H](CC)N1)C(=O)N(Cc1ccccc1)C(=O)N2c1ccccc1` (some centres undefined), in data set [2], the pEC50 is 4.69. Further, the IC50 result with Plasmodium falciparum is on record as “Not Active”. Also, in the data set with Staphylococcus aureus, the result was inactive.

As to `C=CCN1[C@H](c2ccccn2)C(C(=O)OC)C(=O)C(C(=O)OC)[C@@H]1c1ccccn1` (some centres undefined), in data set [1], the CC50 at 48 h is greater than 100 µM. The molecule also had an ED50 in the data set with Leishmania major greater than 100 µM. The IC50 entry with Plasmodium falciparum is reported as “Not Active”. For the same molecule, the outcome in the data set on Staphylococcus aureus was inactive.

(Values after ChEMBL document CHEMBL1140714, “In search of novel agents for therapy of tropical diseases and human immunodeficiency virus” (J Med Chem, 2008).)
